The values that follow come from article PMC10175918 (Communications Biology, 2023).

Holding throughout (assay): cell-based
What all share (parameters): species or system HEK293A; AP-TGFα shedding assay, transfected GPCR plus chimeric Gα mixture, AP release as % of TPA response
What all share (details): HEK293-A

The target of one assay is T1, adenosine A2a receptor (Homo sapiens, UniProt P29274).
T1 construct: gene ADORA2A

Assay [1] deals with T2, chemerin chemokine-like receptor 1 (Homo sapiens, UniProt Q99788).
T2 construct: gene CMKLR1
T2 sequence (Q99788 1-373): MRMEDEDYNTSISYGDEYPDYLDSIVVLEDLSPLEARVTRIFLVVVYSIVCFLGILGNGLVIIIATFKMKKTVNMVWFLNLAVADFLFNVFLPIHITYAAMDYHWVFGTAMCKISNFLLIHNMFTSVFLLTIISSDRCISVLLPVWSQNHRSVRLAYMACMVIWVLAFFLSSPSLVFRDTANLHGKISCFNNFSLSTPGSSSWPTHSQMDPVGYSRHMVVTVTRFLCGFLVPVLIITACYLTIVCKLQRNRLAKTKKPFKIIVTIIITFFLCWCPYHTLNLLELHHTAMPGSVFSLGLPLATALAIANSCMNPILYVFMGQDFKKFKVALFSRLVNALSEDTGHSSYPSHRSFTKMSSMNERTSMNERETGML

The target in assay [2] is T3, hypocretin (orexin) receptor 2 (Homo sapiens, UniProt O43614).
T3 construct: gene HCRTR2
T3 sequence (O43614 1-444): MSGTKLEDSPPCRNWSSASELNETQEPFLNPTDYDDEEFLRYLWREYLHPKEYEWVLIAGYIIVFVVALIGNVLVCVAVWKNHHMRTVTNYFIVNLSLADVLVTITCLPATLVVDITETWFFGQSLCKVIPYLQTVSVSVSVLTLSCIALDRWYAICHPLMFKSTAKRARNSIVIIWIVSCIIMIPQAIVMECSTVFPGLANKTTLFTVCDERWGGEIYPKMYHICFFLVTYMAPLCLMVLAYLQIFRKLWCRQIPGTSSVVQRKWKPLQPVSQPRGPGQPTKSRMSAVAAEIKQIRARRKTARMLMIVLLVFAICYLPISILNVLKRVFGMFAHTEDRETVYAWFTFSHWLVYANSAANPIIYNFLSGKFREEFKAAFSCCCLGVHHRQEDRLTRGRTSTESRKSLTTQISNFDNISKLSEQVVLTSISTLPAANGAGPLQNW

Assay [3] addresses T4, lysophosphatidic acid receptor 4 (Homo sapiens, UniProt Q99677).
T4 construct: gene LPAR4

Assay [4] deals with T5, neurotensin receptor type 2 (Homo sapiens, UniProt O95665).
T5 construct: gene NTSR2
T5 sequence (O95665 whole entry): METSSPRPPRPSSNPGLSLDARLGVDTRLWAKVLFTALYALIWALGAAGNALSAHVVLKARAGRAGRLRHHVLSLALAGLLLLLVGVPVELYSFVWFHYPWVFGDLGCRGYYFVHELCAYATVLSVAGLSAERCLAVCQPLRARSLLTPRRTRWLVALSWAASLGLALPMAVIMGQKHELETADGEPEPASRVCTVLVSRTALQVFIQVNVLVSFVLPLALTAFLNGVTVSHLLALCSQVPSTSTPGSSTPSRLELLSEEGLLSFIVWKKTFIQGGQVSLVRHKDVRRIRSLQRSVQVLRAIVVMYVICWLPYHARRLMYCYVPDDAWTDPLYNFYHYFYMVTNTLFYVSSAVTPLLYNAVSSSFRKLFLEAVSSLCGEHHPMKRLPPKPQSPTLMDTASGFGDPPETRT

The target of assay [5] is T6, prostaglandin E receptor 3 iso6 (Homo sapiens, UniProt P43115).
T6 construct: gene PTGER3; iso6
T6 sequence (P43115 1-390): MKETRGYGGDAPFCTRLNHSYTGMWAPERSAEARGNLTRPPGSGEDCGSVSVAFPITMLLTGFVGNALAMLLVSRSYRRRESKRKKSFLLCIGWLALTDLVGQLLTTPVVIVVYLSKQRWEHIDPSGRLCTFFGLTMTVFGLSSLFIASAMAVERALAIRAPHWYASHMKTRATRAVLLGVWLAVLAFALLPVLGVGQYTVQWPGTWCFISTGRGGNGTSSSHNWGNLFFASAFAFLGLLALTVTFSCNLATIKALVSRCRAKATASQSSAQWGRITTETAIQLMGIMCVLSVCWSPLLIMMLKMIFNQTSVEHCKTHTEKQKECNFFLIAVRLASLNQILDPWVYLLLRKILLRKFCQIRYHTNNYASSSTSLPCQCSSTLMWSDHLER

The target of assay [6] is T7, relaxin/insulin-like family peptide receptor 2 (Homo sapiens, UniProt Q8WXD0).
T7 construct: gene RXFP2
T7 sequence (Q8WXD0 whole entry): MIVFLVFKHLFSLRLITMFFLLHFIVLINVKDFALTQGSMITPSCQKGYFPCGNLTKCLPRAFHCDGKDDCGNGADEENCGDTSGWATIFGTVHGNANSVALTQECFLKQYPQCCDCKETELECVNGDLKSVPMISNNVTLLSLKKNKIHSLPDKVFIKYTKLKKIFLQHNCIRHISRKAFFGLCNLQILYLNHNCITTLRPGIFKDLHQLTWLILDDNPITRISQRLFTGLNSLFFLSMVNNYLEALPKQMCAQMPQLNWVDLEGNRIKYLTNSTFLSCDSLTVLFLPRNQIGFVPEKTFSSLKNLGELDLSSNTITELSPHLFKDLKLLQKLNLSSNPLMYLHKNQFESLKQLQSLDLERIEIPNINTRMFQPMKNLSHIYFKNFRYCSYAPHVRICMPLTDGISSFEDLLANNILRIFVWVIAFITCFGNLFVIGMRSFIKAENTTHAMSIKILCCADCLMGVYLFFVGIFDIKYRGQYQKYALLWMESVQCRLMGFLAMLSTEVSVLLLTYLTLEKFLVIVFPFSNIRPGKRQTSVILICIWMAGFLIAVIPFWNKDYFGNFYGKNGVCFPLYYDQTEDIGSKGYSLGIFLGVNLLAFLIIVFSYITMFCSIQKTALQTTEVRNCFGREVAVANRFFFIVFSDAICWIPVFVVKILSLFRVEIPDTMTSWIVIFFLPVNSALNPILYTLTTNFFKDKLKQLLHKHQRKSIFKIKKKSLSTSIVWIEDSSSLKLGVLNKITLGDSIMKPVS

Assay [7] concerns the target T8, relaxin/insulin-like family peptide receptor 3 (Homo sapiens, UniProt Q9NSD7).
T8 construct: gene RXFP3
T8 sequence (Q9NSD7 1-469): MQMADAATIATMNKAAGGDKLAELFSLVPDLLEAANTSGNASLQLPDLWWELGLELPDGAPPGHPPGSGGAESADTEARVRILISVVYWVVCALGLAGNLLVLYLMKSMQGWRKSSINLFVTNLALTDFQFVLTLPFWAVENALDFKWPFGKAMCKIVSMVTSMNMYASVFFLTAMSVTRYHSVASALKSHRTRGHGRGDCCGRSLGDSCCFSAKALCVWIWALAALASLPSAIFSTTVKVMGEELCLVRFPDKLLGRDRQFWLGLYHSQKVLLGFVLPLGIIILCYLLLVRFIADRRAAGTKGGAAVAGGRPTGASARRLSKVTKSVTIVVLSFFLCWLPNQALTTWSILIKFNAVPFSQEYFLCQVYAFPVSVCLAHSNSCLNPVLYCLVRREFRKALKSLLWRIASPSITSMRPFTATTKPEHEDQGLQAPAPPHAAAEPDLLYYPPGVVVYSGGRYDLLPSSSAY

Assay [8] has as its target T9, relaxin/insulin-like family peptide receptor 4 (Homo sapiens, UniProt Q8TDU9).
T9 construct: gene RXFP4

The next assay concerns the target T10, secretin receptor (Homo sapiens, UniProt P47872).
T10 construct: gene SCTR

Where [9] appears, read: read-out: % GPCR activation of 10µM Molnupiravir compared to TPA.
Setting [10] is: read-out: % GPCR activation of 10μM Sofosbuvir compared to TPA.
Where [11] appears, read: read-out: % GPCR activation of 10μM GS441524 compared to TPA.
Setting [12] is: read-out: % GPCR activation of 100μM Favipiravir compared to TPA.
[13] abbreviates: read-out: % GPCR activation of 10µM Remdesivir compared to TPA.

Read-outs that look alike come from different tables or passages of the source.

T4 sequence (Q99677 whole entry): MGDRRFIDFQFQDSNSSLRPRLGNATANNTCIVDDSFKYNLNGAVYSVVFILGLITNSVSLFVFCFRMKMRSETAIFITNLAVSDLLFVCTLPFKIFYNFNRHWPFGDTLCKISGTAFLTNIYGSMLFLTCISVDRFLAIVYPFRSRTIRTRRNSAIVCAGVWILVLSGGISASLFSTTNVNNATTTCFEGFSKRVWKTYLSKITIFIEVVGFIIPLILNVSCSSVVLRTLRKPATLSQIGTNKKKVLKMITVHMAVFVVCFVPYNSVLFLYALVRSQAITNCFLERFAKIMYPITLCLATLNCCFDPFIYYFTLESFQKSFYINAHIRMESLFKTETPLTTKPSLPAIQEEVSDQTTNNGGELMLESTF
T9 sequence (Q8TDU9 whole entry): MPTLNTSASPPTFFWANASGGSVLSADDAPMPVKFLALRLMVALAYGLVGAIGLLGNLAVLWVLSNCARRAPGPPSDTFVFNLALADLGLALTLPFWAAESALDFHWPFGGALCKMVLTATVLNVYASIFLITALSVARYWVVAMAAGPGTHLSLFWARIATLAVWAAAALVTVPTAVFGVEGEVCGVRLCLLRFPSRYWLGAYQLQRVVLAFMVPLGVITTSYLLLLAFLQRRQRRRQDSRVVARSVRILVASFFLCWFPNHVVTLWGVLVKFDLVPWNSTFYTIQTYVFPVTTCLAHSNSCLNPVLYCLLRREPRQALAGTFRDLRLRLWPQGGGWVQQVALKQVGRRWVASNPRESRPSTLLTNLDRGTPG
T10 sequence (P47872 whole entry): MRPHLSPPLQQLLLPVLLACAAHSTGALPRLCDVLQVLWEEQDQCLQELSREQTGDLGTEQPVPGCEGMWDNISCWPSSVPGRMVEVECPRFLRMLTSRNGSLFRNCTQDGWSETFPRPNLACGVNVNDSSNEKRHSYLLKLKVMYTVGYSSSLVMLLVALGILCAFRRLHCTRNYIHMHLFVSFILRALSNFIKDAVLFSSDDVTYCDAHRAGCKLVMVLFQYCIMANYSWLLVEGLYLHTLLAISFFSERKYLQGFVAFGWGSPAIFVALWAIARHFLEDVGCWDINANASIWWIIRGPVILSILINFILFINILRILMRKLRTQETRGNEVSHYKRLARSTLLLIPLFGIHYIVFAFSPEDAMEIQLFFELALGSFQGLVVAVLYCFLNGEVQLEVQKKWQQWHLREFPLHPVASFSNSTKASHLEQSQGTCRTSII
T1 sequence (P29274 whole entry): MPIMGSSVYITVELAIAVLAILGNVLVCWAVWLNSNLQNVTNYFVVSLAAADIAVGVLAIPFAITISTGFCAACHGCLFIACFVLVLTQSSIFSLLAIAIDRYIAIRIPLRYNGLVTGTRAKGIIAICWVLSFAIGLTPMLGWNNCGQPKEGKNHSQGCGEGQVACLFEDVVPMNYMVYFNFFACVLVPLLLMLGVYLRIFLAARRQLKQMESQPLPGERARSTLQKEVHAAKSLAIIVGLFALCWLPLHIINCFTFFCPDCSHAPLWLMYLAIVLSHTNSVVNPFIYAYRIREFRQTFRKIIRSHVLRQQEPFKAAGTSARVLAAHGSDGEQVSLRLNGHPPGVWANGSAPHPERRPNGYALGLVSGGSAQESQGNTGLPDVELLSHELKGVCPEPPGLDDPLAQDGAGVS

For `CC(C)C(=O)OC[C@H]1O[C@@H](n2ccc(NO)nc2=O)[C@H](O)[C@@H]1O` [molnupiravir], the activity at 10 µM is -1.95% on adenosine A2a receptor (setting [9]); -0.313% in assay [1] (setting [9]); 0.477% in assay [2] (setting [9]); -0.213% in assay [3] (setting [9]); 0.128% in [4] (setting [9]); -0.792% in assay [5] (setting [9]). Further, the activity at 10 µM was -1.68% in [6] (setting [9]), -2.92% in assay [7] (setting [9]), -0.46% in assay [8] (setting [9]) and -0.0837% on secretin receptor (setting [9]).

In the case of `CC(C)OC(=O)[C@H](C)N[P@](=O)(OC[C@H]1O[C@@H](n2ccc(=O)[nH]c2=O)[C@](C)(F)[C@@H]1O)Oc1ccccc1` [sofosbuvir], the activity at 10 µM at adenosine A2a receptor (setting [10]) was -2.15%; in assay [1] (setting [10]), -0.939%; in assay [2] (setting [10]), -1.97%; in assay [3] (setting [10]), 3.13%; in assay [4] (setting [10]) it was 0.255%; in [5] (setting [10]), -2.67%. Moreover, the activity at 10 µM was -1.51% in assay [6] (setting [10]), -2.19% in [7] (setting [10]), -1.57% in [8] (setting [10]) and 0.153% on secretin receptor (setting [10]).

As for `N#C[C@@]1(c2ccc3c(N)ncnn23)O[C@H](CO)[C@@H](O)[C@H]1O` [GS441524], the activity at 10 µM at adenosine A2a receptor (setting [11]) was 1.63%; in [1] (setting [11]), -4.93%; in [2] (setting [11]), 2.17%; in assay [3] (setting [11]), 1.19%; in assay [4] (setting [11]) it was 1.01%; in assay [5] (setting [11]) it was -0.459%. Further, the activity at 10 µM in [6] (setting [11]) was -1.3%; in [7] (setting [11]), 1.98%; in assay [8] (setting [11]), -0.338%; on secretin receptor (setting [11]) it was 0.894%.

Regarding `NC(=O)c1nc(F)cnc1O` [favipiravir, 6-fluoro-3-hydroxy-2-pyrazinecarboxamide], the activity at 100 µM at adenosine A2a receptor (setting [12]) was 2.34%; in assay [1] (setting [12]) it was 2.98%; in assay [2] (setting [12]), 0.725%; in assay [3] (setting [12]), -0.546%; in assay [4] (setting [12]), -3.41%; in assay [5] (setting [12]), 0.28%. The activity at 100 µM in assay [6] (setting [12]) was -0.673%; in assay [7] (setting [12]), 1.4%; in [8] (setting [12]), 1.69%; at secretin receptor (setting [12]), -0.513%.

Turning to `CCC(CC)COC(=O)[C@H](C)N[P@](=O)(OC[C@H]1O[C@@](C#N)(c2ccc3c(N)ncnn23)[C@H](O)[C@@H]1O)Oc1ccccc1` [remdesivir], the activity at 10 µM is 3.96% on adenosine A2a receptor (setting [13]); -1.38% in [1] (setting [13]); 0.000265% in [2] (setting [13]); -0.0834% in assay [3] (setting [13]); -1.86% in [4] (setting [13]); 1.47% in assay [5] (setting [13]). In addition, the activity at 10 µM was 0.369% in assay [6] (setting [13]), 3.55% in [7] (setting [13]), 0.997% in assay [8] (setting [13]) and -0.951% at secretin receptor (setting [13]).
